Measured values reported in patent publication US5256528A, “Magenta image-dye couplers of improved hue” (Eastman Kodak Company, priority 1992, dated 1993).
Values belong to the compound of their own block, whether it stands above or below them.

What was measured:
[1] = Photographic gamma (slope of status M green density vs. exposure), C-41 process
Method: (§1) Dispersions of the comparative couplers B1-B3 and B8 and of the couplers of this invention M1-M3 were prepared by dissolving the coupler in the coupler solvent S1 plus the auxiliary solvent 2-(2-butoxyethoxy)ethyl acetate and then dispersing this oil phase in an aqueous solution of gelatin and surfactant using an ultrasonic probe. The dispersions were chilled and washed for 6 hr at 4° C. to remove the auxiliary solvent. The dispersions contained approximately 8.8% coupler, 4.4% S1 and 6% gelatin by weight.
(§2) The dispersions were coated at 1.04 mmole/sq m together with a silver bromoiodide emulsion on a transparent acetate support in the format shown below. Hardened film strips were exposed through a 0-4 neutral density stepwedge and daylight V and WRATTEN 9 filters and subjected to a standard C-41 process at 37.8° C. The process consists of 2.5 min in color developer, 4 min in a ferric EDTA/PDTA bleach solution, 2 min wash, 4 min fix and 2 min final wash. Photographic gamma values were obtained from the slopes of plots of status M green density vs. exposure for processed samples. Absorption spectra of the dye-containing processed films were measured at a density near 1.0 on a spectrophotometer and the wavelengths of maximum absorption (λ max values) were recorded.
(§3) BVSM* Hardener 0.06 g/sq m
(§4) Coupler Solvent S1 1/2 coupler laydown
(§5) Dispersions of couplers B3, M1 and M5 with S1 (1:0.5) were prepared and coated as in Example 2. Film strips of these coatings were exposed, processed and analyzed as in Example 2. λmax values and gamma values associated with these film compositions are listed in Table III. This series further illustrates the use of electron-withdrawing substituents to obtain magenta dyes of the proper hue.
(§6) Dispersions of the comparative couplers B4, B5 and B8 and the couplers of this invention M6-M11 were prepared and coated as in Example 2. The coupler solvent S1 was again used at a 1:0.5 coupler:S1 weight ratio. Film strips of the hardened coatings were exposed, processed and analyzed as in Example 2. Couplers B4 and M6-M8 have a strongly electron-withdrawing alkoxycarbonyl substituent in the R2 position and couplers B5 and M9-M11 have a strongly electron-withdrawing alkylsulfonyl group at R2. […] The couplers of this invention, M6-M11, which have strong electron-withdrawing groups in each ring, yield dyes having the desired bathochromic hues, as shown by the λmax values. The gamma values obtained with the couplers of this invention are suitably high to be useful in photographic materials, as indicated by comparison to the gamma obtained from the commercial coupler B8.
(§7) Dispersions of the comparison couplers B6 and B7, and of the couplers of this invention M12-M17, were prepared using the coupler solvent Sl as in Example 2. These were coated as in Example 2, and hardened film strips were exposed, processed and analyzed as in Example 2. The results obtained are summarized in Table V. In this example all of the couplers have sulfamoyl or alkylsulfonyl substituents in the R1 position and the R2 substituent on the 3-anilino ring is varied. Comparative couplers B6 and B7 have chloro substituents at R2, whereas M12-M17 of this invention have strong electron withdrawing R2 groups. […] The gamma values of the couplers of this invention are similar to those of the comparative couplers.

[2] = Absorption spectra of dye-containing processed films (λmax), C-41 process; type: physicochemical
Method: as §1, §2, §3, §4, §5, §6, §7

[3] = Continued coupling in bleach, delta Dmin process B - process A; settings: Table VI, no aniline, no DIR coupler
Method: (§8) Dispersions of the coupler B3 were prepared with coupler solvents S1 and C2, both at a 1:1 B3:coupler solvent weight ratio. Dispersions of coupler M1 were prepared with C2 at 1:1 and with C2 plus aniline A1 at a 1:0.8:0.2 M1:C2:A1 weight ratio. These dispersions were prepared by dissolving the coupler in a mixture of coupler solvent, aniline A1 (optional) and cyclohexanone. The coupler:cyclohexanone weight ratio was 1:3. This mixture was then added to an aqueous solution of gelatin and ALKANOL XC surfactant. The two-phase mixture was then passed through a colloid mill to disperse the coupler-containing oil phase in the aqueous phase in the form of small droplets. The dispersion was then chilled, noodled and washed to remove the auxiliary cyclohexanone solvent. The resulting dispersions contained approximately 2% by weight of coupler and 6% by weight of gelatin.
(§9) The dispersions were then coated on a transparent support together with a silver bromoiodide emulsion in the format shown below. Coatings were then exposed through a stepwedge and subjected to variants of the KODAK FLEXICOLOR (C-41) process described below. One set of film samples was processed with an acetic acid stop bath between the development and bleach steps (process A). A second set of films was processed without a stop bath and with the bleach pH adjusted to 6.0 instead of the normal 5.25 (process B). This is intended to simulate behavior in a "seasoned" bleach whose pH increases due to carry-over of base from the developer solution. The difference between Dmin values (densities obtained in unexposed portions of the films) between process A and process B are due to continued coupling between coupler and developer carried over into the bleach. Both the lack of a stop bath and the high bleach pH in process B aggravate continued coupling. It is desirable to minimize Dmin density and Dmin variability due to continued coupling. Since conditions similar to process B are encountered in simplified trade processing, it is desirable to minimize continued coupling, as measured by the delta Dmin of process B - process A. These delta Dmin values are listed in Table VI along with λmax values and gamma values (obtained from plots of status M green density versus exposure).
(§10) 2.6 g/sq m Gelatin + 1.75 weight % BVSME* Hardener
(§11) Coupler Solvent + or - A1 @ equal weight to coupler
(§12) 1.08 g/sq m Silver Emulsion
(§13) //////Cellulose Acetate Butyrate Support//////
or Standard C-41 Bleach II
2B Bleach II Adjusted to pH = 6.0
(§14) Also included in this comparison was a 1:1 dispersion of M1 plus C2 to which was added the DIR coupler D1 (shown above) at a M1:D1 weight ratio of 1:0.045.

[4] = Photographic gamma with coupler solvents and addenda (KODAK FLEXICOLOR C-41 variants); settings: Table VI, no aniline, no DIR coupler
Method: as §8
as §9, with “Both the lack of a stop bath and the high bleach pH in process B aggravate continued coupling. It is desirable to minimize Dmin density and Dmin variability due to continued coupling.” left out, “exposure). […]” for “exposure).”

[5] = λmax with coupler solvents and addenda (KODAK FLEXICOLOR C-41 variants); type: physicochemical; settings: Table VI, no aniline, no DIR coupler
Method: as §8, §9, §10, §11, §12, §13, §14

[6] = Table III, Example 4, coupler:S1 1:0.5
[7] = Table IV, Example 5, coupler:S1 1:0.5
[8] = Table V, Example 6, coupler solvent S1
[9] = Table I, Example 2, coupler:S1 1:0.5

λmax(nm) (+-0.5) [2, 7]: 548.5 nm
Structure (SMILES): CCCCCCCCCCCCOC(=O)c1ccc(NC2=NN(c3c(Cl)cc(S(=O)(=O)N4CCOCC4)cc3Cl)C(=O)C2Sc2cc(C(C)(C)CC(C)(C)C)ccc2OCCCC)c(Cl)c1 (stereo not shown) [Coupler M6]
Gamma [1, 7]: 3.7

λmax(nm) (+-0.5) [2, 8]: 550.5 nm
Structure (SMILES): CCCCCCCCCCCCS(=O)(=O)c1cc(Cl)c(N2N=C(Nc3ccc(S(C)(=O)=O)cc3Cl)C(Sc3cc(C(C)(C)CC(C)(C)C)ccc3OCCCC)C2=O)c(Cl)c1 (stereo not shown) [Coupler M16]
Gamma [1, 8]: 3.2

λmax(nm) (+-0.5) [2, 8]: 550.5 nm
Structure (SMILES): CCCCCCCCCCCCNS(=O)(=O)c1cc(Cl)c(N2N=C(Nc3ccc(C#N)cc3Cl)C(Sc3cc(C(C)(C)CC(C)(C)C)ccc3OCCCC)C2=O)c(Cl)c1 (stereo not shown) [Coupler M14]
Gamma [1, 8]: 3.1

λmax(nm) (+-0.5) [2, 7]: 551.0 nm
Structure (SMILES): CCCCCCCCCCCCS(=O)(=O)c1ccc(NC2=NN(c3c(Cl)cc(S(=O)(=O)N4CCOCC4)cc3Cl)C(=O)C2Sc2cc(C(C)(C)CC(C)(C)C)ccc2OCCCC)c(Cl)c1 (stereo not shown) [Coupler M9]
Gamma [1, 7]: 3.2

λmax(nm) (+-0.5) [2, 8]: 551.0 nm
Structure (SMILES): CCCCCCCCCCCCS(=O)(=O)c1cc(Cl)c(N2N=C(Nc3ccc(S(=O)(=O)N4CCOCC4)cc3Cl)C(Sc3cc(C(C)(C)CC(C)(C)C)ccc3OCCCC)C2=O)c(Cl)c1 (stereo not shown) [Coupler M15]
Gamma [1, 8]: 3.4

λmax(nm) (+-0.5) [2, 8]: 549.5 nm
Structure (SMILES): CCCCCCCCCCCCNS(=O)(=O)c1cc(Cl)c(N2N=C(Nc3ccc(S(C)(=O)=O)cc3Cl)C(Sc3cc(C(C)(C)CC(C)(C)C)ccc3OCCCC)C2=O)c(Cl)c1 (stereo not shown) [Coupler M13]
Gamma [1, 8]: 3.9

λmax(nm) (+-0.5) [2, 7]: 548.5 nm
Structure (SMILES): CCCCCCCCCCCCOC(=O)c1ccc(NC2=NN(c3c(Cl)cc(C#N)cc3Cl)C(=O)C2Sc2cc(C(C)(C)CC(C)(C)C)ccc2OCCCC)c(Cl)c1 (stereo not shown) [Coupler M8]
Gamma [1, 7]: 4.1

λmax(nm) (+-0.5) [2, 9]: 551.0 nm
Structure (SMILES): CCCCCCCCCCCCNS(=O)(=O)c1ccc(NC2=NN(c3c(Cl)cc(S(=O)(=O)N4CCOCC4)cc3Cl)C(=O)C2Sc2ccccc2N(CCCCCCCCCCCC)C(=O)C(C)(C)C)c(Cl)c1 (stereo not shown) [Coupler M3]
Gamma [1, 9]: 4.4

λmax(nm) (+-0.5) [2, 9]: 551.5 nm
Structure (SMILES): CCCCCCCCCCCCNS(=O)(=O)c1ccc(NC2=NN(c3c(Cl)cc(S(=O)(=O)N4CCOCC4)cc3Cl)C(=O)C2Sc2ccccc2N(C)C(=O)CCCCCCCCCCC)c(Cl)c1 (stereo not shown) [Coupler M2]
Gamma [1, 9]: 3.9

λmax(nm) (+-0.5) [2, 8]: 550.5 nm
Structure (SMILES): CCCCCCCCCCCCS(=O)(=O)c1cc(Cl)c(N2N=C(Nc3ccc(C#N)cc3Cl)C(Sc3cc(C(C)(C)CC(C)(C)C)ccc3OCCCC)C2=O)c(Cl)c1 (stereo not shown) [Coupler M17]
Gamma [1, 8]: 3.5

λmax(nm) (+-0.5) [2, 8]: 549.5 nm
Structure (SMILES): CCCCCCCCCCCCNS(=O)(=O)c1cc(Cl)c(N2N=C(Nc3ccc(S(=O)(=O)N4CCOCC4)cc3Cl)C(Sc3cc(C(C)(C)CC(C)(C)C)ccc3OCCCC)C2=O)c(Cl)c1 (stereo not shown) [Coupler M12]
Gamma [1, 8]: 3.1

λmax(nm) (+-0.5) [2, 7]: 548.5 nm
Structure (SMILES): CCCCCCCCCCCCOC(=O)c1ccc(NC2=NN(c3c(Cl)cc(S(C)(=O)=O)cc3Cl)C(=O)C2Sc2cc(C(C)(C)CC(C)(C)C)ccc2OCCCC)c(Cl)c1 (stereo not shown) [Coupler M7]
Gamma [1, 7]: 3.1

λmax(nm) (+-0.5) [2, 7]: 551.0 nm
Structure (SMILES): CCCCCCCCCCCCS(=O)(=O)c1ccc(NC2=NN(c3c(Cl)cc(S(C)(=O)=O)cc3Cl)C(=O)C2Sc2cc(C(C)(C)CC(C)(C)C)ccc2OCCCC)c(Cl)c1 (stereo not shown) [Coupler M10]
Gamma [1, 7]: 3.2

More lines, now with the values behind:

Structure (SMILES): CCCCCCCCCCCCNS(=O)(=O)c1ccc(NC2=NN(c3c(Cl)cc(C#N)cc3Cl)C(=O)C2Sc2cc(C(C)(C)CC(C)(C)C)ccc2OCCCC)c(Cl)c1 (stereo not shown) [Coupler M5]
Gamma [1, 6]: 3.8

Structure (SMILES): CCCCCCCCCCCCNS(=O)(=O)c1ccc(NC2=NN(c3c(Cl)cccc3Cl)C(=O)C2Sc2cc(C(C)(C)CC(C)(C)C)ccc2OCCCC)c(Cl)c1 (stereo not shown) [Coupler B2, reference compound]
λmax(nm) (+-0.5) [2, 9]: 542.0 nm
Gamma [1, 9]: 5.3

Structure (SMILES): CCCCCCCCCCCCS(=O)(=O)c1ccc(NC2=NN(c3c(Cl)cc(Cl)cc3Cl)C(=O)C2Sc2cc(C(C)(C)CC(C)(C)C)ccc2OCCCC)c(Cl)c1 (stereo not shown) [Coupler B5, reference compound]
Gamma [1, 7]: 4.2

Structure (SMILES): CCCCCCCCCCCCNS(=O)(=O)c1cc(Cl)c(N2N=C(Nc3ccc(Cl)cc3Cl)C(Sc3cc(C(C)(C)CC(C)(C)C)ccc3OCCCC)C2=O)c(Cl)c1 (stereo not shown) [Coupler B6, reference compound]
Gamma [1, 8]: 3.4

Structure (SMILES): CCCCCCCCCCCCS(=O)(=O)c1cc(Cl)c(N2N=C(Nc3ccc(Cl)cc3Cl)C(Sc3cc(C(C)(C)CC(C)(C)C)ccc3OCCCC)C2=O)c(Cl)c1 (stereo not shown) [Coupler B7, reference compound]
Gamma [1, 8]: 3.3

Structure (SMILES): CCCCCCCCCCCCOC(=O)c1ccc(NC2=NN(c3c(Cl)cc(Cl)cc3Cl)C(=O)C2Sc2cc(C(C)(C)CC(C)(C)C)ccc2OCCCC)c(Cl)c1 (stereo not shown) [Coupler B4, reference compound]
Gamma [1, 7]: 4.1

Structure (SMILES): CCCCCCCCCCCCNS(=O)(=O)c1ccc(NC2=NN(c3c(Cl)cc(OC)cc3Cl)C(=O)C2Sc2cc(C(C)(C)CC(C)(C)C)ccc2OCCCC)c(Cl)c1 (stereo not shown) [Coupler B1, reference compound]
λmax(nm) (+-0.5) [2, 9]: 539.5 nm
Gamma [1, 9]: 4.8

Structure (SMILES): CCC(C)(C)c1ccc(OCC(=O)Nc2cccc(C(=O)NC3=NN(c4c(Cl)cc(Cl)cc4Cl)C(=O)C3)c2)c(C(C)(C)CC)c1 [Coupler B8, reference compound]
λmax(nm) (+-0.5) [2, 9]: 555.0 nm
λmax(nm) (+-0.5) [2, 7]: 553.0 nm
Gamma [1, 9]: 2.3
Gamma [1, 7]: 2.0

Structure (SMILES): CCCCCCCCCCCCNS(=O)(=O)c1ccc(NC2=NN(c3c(Cl)cc(Cl)cc3Cl)C(=O)C2Sc2cc(C(C)(C)CC(C)(C)C)ccc2OCCCC)c(Cl)c1 (stereo not shown) [Coupler B3, reference compound]
Delta Dmin Process B-A ([3]; C2(1.0)): 0.071
Delta Dmin Process B-A ([3]; S1(1.0)): 0.191
λmax(nm) (+-0.5) [2, 9]: 546.0 nm
λmax(nm) (+-0.5) [2, 6]: 546.5 nm
Gamma ([4]; C2(1.0)): 1.78
Gamma ([4]; S1(1.0)): 2.10
λmax(nm) ([5]; C2(1.0)): 544 nm
λmax(nm) ([5]; S1(1.0)): 548 nm
Gamma [1, 9]: 4.7
Gamma [1, 6]: 4.5
